Data as given in patent publication US10729132B2, “Xylophage control using antimethanogenic reagents” (Environmental Intellectual Property, Inc, priority 2015, dated 2020).

Key:
[1] = test system: Archaea; test: Laboratory Study 5: methane concentration in control and test samples with AMRs
Description: Use of diallyl sulfide, which may be considered a synthetic garlic oil (GOS), was evaluated for its ability to control Archaea compared to the effects of other potential AMRs such as natural/pressed Garlic Oil (GO) and dehydrated Garlic Powder (GP). Control samples with and without contaminants were captured along with test samples that included contaminants and different concentrations (250 ppm and 500 ppm) of different AMRs (GO, GOS and GP). The concentration of methane in each of the samples was measured at 0, 9, 16 and 23 days.

[2] = test system: F420-dependent NADP oxidoreductase enzyme from M. smithii; details: compared to the natural ligand F420; cited from earlier work

Structure (SMILES)	length and magnitude of antimethanogenic responses ([1]; 500 ppm lasting longer than 250 ppm)	control response in terms of methane production ([1]; after 23 days incubation, 250 ppm and 500 ppm)	affinity for the model protein [2]
C=CCSCC=C [GOS, diallyl sulfide]	concentration dependent	best control response	
CC[C@H](C)C(=O)O[C@H]1CCC=C2C=C[C@H](C)[C@H](CC[C@@H]3C[C@@H](O)CC(=O)O3)[C@H]21 [compactin]			more affinity
CC[C@H](C)C(=O)O[C@H]1C[C@@H](C)C=C2C=C[C@H](C)[C@H](CC[C@@H]3C[C@@H](O)CC(=O)O3)[C@H]21 [lovastatin]			more affinity
